Experiments:
[1] = system: vaccine specific antibodies; experiment: Vaccine-specific antibodies in infant stool; format: in vivo, human
Description: Infants from Example 1 received vaccines per the standard schedule. Standard schedule is expected to look like this, as per the CDC (other nations have slightly different schedules; however, the repeated doses over the first year of life is common).
Stool samples were collected at 10 and 12 months for vaccine quantification to coincide with an appropriate post-vaccine time point, and to allow the expansion of vaccine-specific antibodies concentrations to plateau after primary, secondary or tertiary doses [Wright et al. (2014) Journal of Infectious Diseases:209 pg 1628-1634; Brown et al. (2012) J Immunol Methods: 386(1-2): 117-12].
Evaluation of stool for antigen specific responses in infants colonized with B. infantis EVC001. Biophysical antibody profiling assays are performed to assess the Fv and Fc characteristics of vaccine-elicited antibodies raised in infants with and without B. infantis colonization. Presence and phenotype of antibodies in test samples are assessed by staining of bead-bound antibodies with PE-conjugated detection reagents (Anti-IgG, Anti-IgA, and potentially Anti-IgE) and detection via flow cytometry. For the assay, 100 μL each of prepared stool samples from 34 subjects (2 timepoints, up to 62 samples total) that received either received EVC001 or are part of the control group.

[2] = system: IL-1β, IL-2, IL-5, IL-6, IL-8, IL-10, IL-22, IFNγ, TNFα; experiment: Fecal cytokines, multiplexed immunoassay (MSD U-PLEX Inflammation Panel 1); format: in vivo, human; settings: for IFNγ Median (SD) / IL-1β Median (SD) / IL-2 Median (SD) / IL-5 Median (SD) / IL-6 Median (SD) / IL-8 Median (SD) / IL-10 Median (SD) / IL-22 Median (SD) / TNFα Median (SD): infant feces
Procedure: Multiplexed Immunoassays. Interleukin (IL)-1β, IL-2, IL-5, IL-6, IL-8, IL-10, IL-22, interferon (IFN) γ, and tumor necrosis factor (TNF) α were quantified from 80 mg of stool diluted 1:10 in Meso Scale Discovery (MSD; Rockville, Md.) diluent using the U-PLEX Inflammation Panel 1 (human) Kit according to the manufacturer's instructions. Standards and samples were measured in duplicate and blank values were subtracted from all readings. The plate was then read on a Sector Imager 2400 MSD Discovery Workbench analysis software. Statistical Analysis. Demographic differences between Control and EVC001-fed infants was analyzed using Fisher's Exact test for categorical data and Wilcoxon rank sum (Mann-Whitney U) test for continuous data. […] The relationship between fecal calprotectin concentration and % Bifidobacteriaceae was quantified using Spearman's Rho correlation, and the differences in calprotectin concentration between high (>25%) and low (<25%) Bifidobacteriaceae abundance was assessed using the Wilcoxon rank sum test. One subject with abnormally high fecal calprotectin concentration (greater than 3 standard deviations above the mean of both treatment and control data) was considered an extreme outlier and removed from the aforementioned calprotectin analyses. Wilcoxon rank sum tests were performed to assess relative abundance for each bacterial taxa and cytokine concentration differences. For radar plots, medians were adjusted to log scale, then normalized within each cytokine group from 0 to 1. Differences overtime within each cytokine group were evaluated using the Wilcoxon rank sum test. P-values were adjusted using the Bonferroni-Holms method and considered statistically significant if P<0.05. Statistical analyses were applied to determine the significance of global cytokine profile as determined by computing a Bray-Curtis distance metric translated into a principal coordinate analysis and visualized with EMPeror. Global cytokine profile differences by group status were then determined using a permutational multivariate analysis of variance (PERMANOVA), and significant P-values were determined using 999 Monte Carlo permutations. To assess the relationship between the global cytokine profile and the microbiome, we used a Procrustes analysis. The taxonomic operational taxonomic unit (OTU) table at the family level was computed using QIIME, and the cytokine table was used to generate a distance matrix for each, using a weighted UniFrac for 16S and Bray-Curtis for the cytokine. We performed a principal coordinate analysis separately on the two matrices and used a Procrustes analysis as implemented in QIIME to rotate, translate, and scale the matrices. The resulting transformed matrices were plotted using EMPeror. P-values for the Procrustes analysis were generated using Monte Carlo simulations (n=999). Raw correlation statistics were assigned the likelihood of these associations to be true positive associations by computing P-values via a Fisher's Z transform to normalize the distribution of the correlation scores.

[3] = Bacterial growth and oligosaccharide use in HMO, LNnT or FOS media (growth curves, HPLC); settings: compared to other Bifidobacterium and Lactobacillus strains
Procedure: Little is known about the anti-inflammatory effects B. infantis-derived metabolites have on intestinal epithelial cells and how they might protect and maintain mucosal integrity in the infant gut. To investigate whether metabolites from B. infantis grown on HMO and synthetic HMOs can provide protective effects against pathogen-induced inflammation and maintain mucosal integrity compared to other commensal strains that have been previously characterized. B. infantis, B. breve, B. bifidum, and B. longum were grown in media containing pooled HMOs, synthetic Lacto-N-neotetraose (LNnT), or fructo-oligosaccharide (FOS, a readily available oligosaccharide commonly used in baby formulas). Four Lactobacillus plantarum strains were also grown in HMO, LNnT, and FOS media. Spent supernatant was collected and filtered after 48 hours of growth (when the bacteria reached the stationary phase) and evaluated for the remaining oligosaccharide concentration. […] After overnight incubation, cell supernatant was analyzed by ELISA for reductions in pro-inflammatory cytokines, including IL-8 and TNF-alpha. […]

[4] = Day 40 compared to Day 6, within EVC001-fed infants
[5] = Day 60 compared to Day 6, within EVC001-fed infants
[6] = Day 6 (Baseline), before supplementation starts on Day 7

## Bifidobacterium longum subsp. infantis EVC001 [B. infantis EVC001]
[1]; infants persistently colonized for at least the first 100 days of life vs infants without colonization
  Vaccine response: stronger vaccine response
[1]; stool collected at 10 and 12 months, treatment group
  Vaccine specific antibodies in stool: significant elevation
[2]; [4]
  Fecal IFNγ level change over time: significantly increased
  Fecal IL-2 level change over time: significantly lower
  Fecal IL-5 level change over time: significantly lower
  Fecal IL-6 level change over time: significantly lower
  Fecal IL-10 level change over time: significantly lower
  Fecal IL-22 level change over time: significantly lower
  Fecal TNFα level change over time: significantly lower
[2]; [5]
  Fecal IFNγ level change over time: significantly higher
  Fecal IL-2 level change over time: significantly lower
  Fecal IL-5 level change over time: significantly lower
  Fecal IL-6 level change over time: significantly lower
  Fecal IL-10 level change over time: significantly lower
  Fecal TNFα level change over time: significantly lower
[2]; Day 60 compared to Day 40, within EVC001-fed infants
  Fecal IL-22 level change over time: significantly higher
[2]; first 60 days postnatal, versus Control infants
  Fecal cytokine levels overall: significantly lower
[2]; [6]
  IFNγ Median (SD): 0.29 pg/mg
  IL-1β Median (SD): 38.65 pg/mg
  IL-2 Median (SD): 48.13 pg/mg
  IL-5 Median (SD): 16.53 pg/mg
  IL-6 Median (SD): 9.29 pg/mg
  IL-8 Median (SD): 48.35 pg/mg
  IL-10 Median (SD): 8.76 pg/mg
  IL-22 Median (SD): 4.22 pg/mg
  TNFα Median (SD): 26.71 pg/mg
[2]; Day 40
  IL-2 Median (SD): 3.36 pg/mg
  IL-5 Median (SD): 1.48 pg/mg
  IL-6 Median (SD): 0.48 pg/mg
  IL-10 Median (SD): 0.55 pg/mg
  TNFα Median (SD): 2.7 pg/mg
[2]; Day 60
  IFNγ Median (SD): 26.74 pg/mg
  IL-1β Median (SD): 13.22 pg/mg
  IL-2 Median (SD): 3.16 pg/mg
  IL-5 Median (SD): 1.85 pg/mg
  IL-6 Median (SD): 0.71 pg/mg
  IL-8 Median (SD): 70.13 pg/mg
  IL-10 Median (SD): 0.46 pg/mg
  IL-22 Median (SD): 3.54 pg/mg
  TNFα Median (SD): 3.97 pg/mg
[3]
  Growth in HMOs (growth curves): selective growth advantage
